Among the data in US20060122222A1, “Heterocycle substituted carboxylic acids” (The Institutes for Pharmaceutical Discovery, LLC, priority 2004, published 2006) are melting point values, retold here.

As for `O=C(O)[C@@H]1CSC(c2ccc(-c3ccc(-c4c(Cc5ccccc5)oc5ccccc45)cc3)cc2)N1` (mixture of isomers) [Example 38, (2RS, 4R)-2-[4′-(2-Benzylbenzofuran-3-yl)biphen-4-yl]thiazolidine-4-carboxylic acid], the melting point (in general, the temperature, or range, at which the solid turns liquid) is 148 °C (dec.).

Take `O=C(O)[C@@H]1CSC(c2ccc(-c3ccc(-n4ccc5ccccc54)cc3)cc2)N1` (stereo in doubt) [Example 27, 2-(4′-Indol-1-yl-biphen-4-yl)thiazolidine-4-carboxylic acid]: the melting point was 135 to 137 °C (dec.).

Regarding `O=C(O)C(=O)Nc1cc(-c2ccc(-c3cccc4c3oc3ccccc34)cc2)cn(Cc2ccccc2)c1=O` [Example 4, N-[1-Benzyl-5-(4-dibenzofuran-4-yl-phenyl)-2-oxo-1,2-dihydro-pyridin-3-yl]-oxalamic acid], the melting point lay in the range of 220 to 223 °C.

In turn, `CCc1ccc(-c2sc(NC(=O)c3ccc(S(=O)(=O)N4CCCC4C(=O)O)cc3)nc2-c2ccc(Cl)cc2)cc1` (stereo not drawn) [Example 5, 1-{4-[4-(4-Chloro-phenyl)-5-(4-ethyl-phenyl)-thiazol-2-ylcarbamoyl]-benzenesulfonyl}-pyrrolidine-2-carboxylic acid] showed a melting point of 289 to 292 °C.

On to `O=C(O)CCNc1cc(-c2ccc(-c3cccc4c3oc3ccccc34)cc2)nc(Cc2ccccc2)n1` [Example 45, 3-[2-Benzyl-6-(4-dibenzofuran-4-yl-phenyl)-pyrimidin-4-ylamino]-propionic acid], for which the melting point was 205 °C (dec.).

For the molecule `O=C(O)CCNc1cc(-c2ccc(-c3cccc4c3oc3ccccc34)cc2)nc(-c2ccccc2)n1` [Example 46, 3-[2-phenyl-6-(4-dibenzofuran-4-yl-phenyl)-pyrimidin-4-ylamino]-propionic acid], the melting point was 210 °C (dec.).
